According to the supplement of paper PMC10307832:

Experiments:
Experiment in all cases: relative viability (nuclei count vs DMSO), 5 days (fraction); higher = more cells survive
[1] = compound: CCN1CCC(CC1)N2C=C(N=N2)CNC3=CC4=C(C(=CN=C4C(=C3)Cl)C#N)NC5=CC(=C(C=C5)F)Cl [KIN001-266] + Cc1nc(Nc2ncc(C(=O)Nc3c(C)cccc3Cl)s2)cc(N2CCN(CCO)CC2)n1 [Dasatinib] (partner 0.075 µM)
Method in brief: (§1)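 Lung cancer cell lines, seeded in 1536-well plates, were treated the following day by pin tool with a single drug or with five library-drug doses (not always all listed) in √10 steps on top of a fixed anchor-drug dose. Cells were fixed and nuclei stained in one step after 5 days, and nuclei were counted. Relative viability is the nuclei count for treated wells divided by that for vehicle wells, reported as medians of duplicate plates.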

[2] = compound: CCN1CCC(CC1)N2C=C(N=N2)CNC3=CC4=C(C(=CN=C4C(=C3)Cl)C#N)NC5=CC(=C(C=C5)F)Cl [KIN001-266] + C[C@@H](Oc1cc(-c2cnn(C3CCNCC3)c2)cnc1N)c1c(Cl)ccc(F)c1Cl [Crizotinib] (partner 1 µM)
Method in brief: as §1

[3] = compound: CCN1CCC(CC1)N2C=C(N=N2)CNC3=CC4=C(C(=CN=C4C(=C3)Cl)C#N)NC5=CC(=C(C=C5)F)Cl [KIN001-266] + CC1(C)CCC(c2ccc(Cl)cc2)=C(CN2CCN(c3ccc(C(=O)NS(=O)(=O)c4ccc(N[C@H](CCN5CCOCC5)CSc5ccccc5)c(S(=O)(=O)C(F)(F)F)c4)cc3)CC2)C1 [Navitoclax] (partner 0.5 µM)
Method in brief: as §1

[4] = compound: CCN1CCC(CC1)N2C=C(N=N2)CNC3=CC4=C(C(=CN=C4C(=C3)Cl)C#N)NC5=CC(=C(C=C5)F)Cl [KIN001-266] + O=C(CCCCCCC(=O)Nc1ccccc1)NO [Vorinostat] (partner 1 µM)
Method in brief: as §1

Cell Line | relative viability ([1]; first compound 0.08 µM) | relative viability ([1]; first compound 0.253 µM) | relative viability ([1]; first compound 0.8 µM) | relative viability ([1]; first compound 2.53 µM) | relative viability ([1]; first compound 8 µM) | relative viability ([2]; first compound 0.08 µM) | relative viability ([2]; first compound 0.253 µM) | relative viability ([2]; first compound 0.8 µM) | relative viability ([2]; first compound 2.53 µM) | relative viability ([2]; first compound 8 µM) | relative viability ([3]; first compound 0.08 µM) | relative viability ([3]; first compound 0.253 µM) | relative viability ([3]; first compound 0.8 µM) | relative viability ([3]; first compound 2.53 µM) | relative viability ([3]; first compound 8 µM) | relative viability ([4]; first compound 0.08 µM) | relative viability ([4]; first compound 0.253 µM) | relative viability ([4]; first compound 0.8 µM) | relative viability ([4]; first compound 2.53 µM) | relative viability ([4]; first compound 8 µM)
EKVX | 0.468 | 0.519 | 0.549 | 0.533 | 0.406 | 0.893 | 0.933 | 0.894 | 0.899 | 0.894 | 1.08 | 0.822 | 0.925 | 0.975 | 0.876 | 0.663 | 0.671 | 0.757 | 0.735 | 0.678
ChaGo-K-1 | 0.581 | 0.58 | 0.528 | 0.512 | 0.533 | 1.09 | 1.12 |  | 1.09 | 0.982 | 1.27 | 1.12 |  | 1.1 | 1.14 | 0.792 | 0.718 | 0.737 | 0.645 | 0.535
NCI-H23 | 0.867 | 0.86 | 0.917 | 0.683 | 0.85 | 0.583 | 0.523 | 0.41 | 0.496 | 0.448 | 0.835 | 0.876 | 0.762 | 0.962 | 0.719 | 0.7 | 0.523 | 0.667 | 0.584 | 0.551
EMC-BAC-2 | 0.352 | 0.392 | 0.319 | 0.373 | 0.331 | 0.826 | 0.797 | 0.758 | 0.751 | 0.794 | 1.15 | 1.1 | 1.08 | 1.16 | 1.22 | 0.53 | 0.614 | 0.564 | 0.505 | 0.849
LOU-NH91 | 0.553 | 0.531 | 0.39 | 0.516 | 0.435 | 0.75 | 0.694 | 0.576 | 0.683 | 0.647 | 0.761 | 0.646 | 0.47 | 0.609 | 0.55 | 0.96 | 0.924 | 0.71 | 0.746 | 0.797
LU99A | 0.726 | 0.514 | 0.505 | 0.428 | 0.425 | 0.662 | 0.519 | 0.515 | 0.55 | 0.522 | 0.917 | 0.749 | 0.735 | 0.752 | 0.569 | 0.484 | 0.591 | 0.467 | 0.459 | 0.539
NCI-H460 | 0.659 | 0.513 | 0.531 | 0.45 | 0.496 | 1.01 | 0.872 | 1.12 | 0.808 | 0.67 | 1.16 | 1.2 | 1.15 | 1.03 | 1.07 | 0.725 | 0.697 | 0.735 | 0.649 | 0.671
201T | 0.62 | 0.513 | 0.545 | 0.606 | 0.589 | 1.05 | 0.997 | 1.02 | 1.03 | 1.03 | 1.18 | 1.23 | 1.23 | 1.19 | 1.21 | 1.02 | 0.969 | 0.876 | 0.988 | 0.934
NCI-H1944 | 0.244 | 0.215 | 0.187 | 0.214 | 0.209 | 1.13 | 1.13 | 1.1 | 1.08 | 1.24 | 1.03 | 1.05 | 0.991 | 1.04 | 1.04 | 0.58 | 0.508 | 0.469 | 0.575 | 0.625
NCI-H2405 | 0.207 | 0.241 | 0.233 | 0.223 | 0.202 | 0.854 | 0.89 | 0.811 | 0.852 | 0.565 | 1.02 | 1 | 0.901 | 0.881 | 0.4 | 1.08 | 1.03 | 1.02 | 1.04 | 0.809
NCI-H1755 | 0.415 | 0.387 | 0.471 | 0.478 | 0.451 | 0.942 | 0.798 | 0.836 | 0.826 | 0.718 | 1.01 | 0.985 | 0.981 | 0.992 | 0.799 | 0.726 | 0.75 | 0.7 | 0.691 | 0.763
NCI-H2087 | 0.914 | 0.887 | 0.866 | 0.87 | 0.472 | 0.699 | 0.81 | 0.604 | 0.786 | 0.532 | 1.17 | 0.93 | 0.916 | 0.97 | 0.56 | 0.455 | 0.776 | 0.965 | 0.898 | 0.594
NCI-H2228 | 0.544 | 0.538 | 0.511 | 0.434 | 0.451 | 0.583 | 0.435 | 0.565 | 0.493 | 0.471 | 0.738 | 0.937 | 1.4 | 0.851 | 0.514 | 0.631 | 0.645 | 0.722 | 0.509 | 0.422
NCI-H727 | 0.473 | 0.468 | 0.323 | 0.342 | 0.261 | 0.79 | 0.812 | 0.753 | 0.825 | 0.405 | 0.337 | 0.557 | 0.484 | 0.577 | 0.183 | 1.13 | 1.29 | 1.31 | 1.08 | 1.14
NCI-H520 | 0.209 | 0.208 | 0.187 | 0.168 | 0.194 | 0.719 | 0.675 | 0.809 | 0.742 | 0.747 | 1.11 | 1.05 | 1.16 | 0.926 | 0.967 | 0.659 | 0.71 | 0.838 | 0.673 | 0.452
